Reference: patent EP1325735A2, “Use of L-arginine derivatives as photo-protecting agents and enhancing melanic response in cosmetic compositions” (EXSYMOL S.A.M., priority 2002, dated 2003)
Square brackets hold non-standard residues; d marks the D form. Peptide text beside a SMILES is read from it. ξ: configuration not given here. ξM = CSCCC(N)C(=O)O

Key:
[1] = Hydroxyl radical OH• scavenging, deoxyribose protection test (Halliwell method); details: rate constant of S on OH•; mean (± SD) of 3 independent experiments
Source text: Le test, réalisé selon la méthode décrite par B. Halliwell et coll. […] Le pouvoir protecteur est déduit de la comparaison des cinétiques de réaction, exprimées par une constante de vitesse de S sur OH• (piégeage de OH•).
Les constantes de vitesse correspondent à la valeur moyenne (± D.S.) calculée à partir de 3 expériences indépendantes

[2] = system: co-culture in vitro de mélanocytes et de kératinocytes; experiment: In vitro melanocyte/keratinocyte co-culture model of the "mélano-épidermique" unit: melanic response after UV; type: cell-based; parameters: unit not given here; details: for réponse mélanique: co-culture + MdC "ARG-free" irradiée par UVB: ARG-free medium (insufficient physiological arginine); for réponse mélanique: co-culture + MdC "ARG-free" irradiée par UVB / réponse mélanique: co-culture + MdC "ARG = 84mg/L" irradiée par UVB: UVB irradiated; for réponse mélanique: co-culture + MdC "ARG = 84mg/L" irradiée par UVB / réponse mélanique: co-culture + MdC "ARG = 84mg/L" sans irradiation: standard medium with supra-physiological arginine; for réponse mélanique: co-culture + MdC "ARG = 84mg/L" sans irradiation: no irradiation
Source text: Test 2 : démonstration de l'effet des dérivés d'arginine sur l'unité "mélano-épidermique" et la réponse mélanique
Nous avons mis au point un modèle expérimental reproduisant l'unité "mélano-épidermique", et qui permet de mettre en évidence les effets d'un apport exogène de dérivés d'arginine sur la réponse mélanique à la suite de rayonnements U.V. (effet direct sur les mélanocytes et indirect via la "communication cellulaire" entre kératinocytes et mélanocytes). Il s'agit d'un modèle de co-culture in vitro de mélanocytes et de kératinocytes (voir représentation schématique du modèle), possédant un milieu de culture (MdC) particulier. [drawing]
Le fond poreux de la chambre supérieure permet le passage, d'un compartiment à l'autre, des facteurs endogènes sécrétés par les cellules (NO) et la substance (S).

SMILES	constante de vitesse de piégeage [1]	réponse mélanique: co-culture + MdC "ARG-free" irradiée par UVB ([2]; substance 0,12 mM)	réponse mélanique: co-culture + MdC "ARG = 84mg/L" irradiée par UVB ([2]; substance 0,12 mM)	réponse mélanique: co-culture + MdC "ARG = 84mg/L" sans irradiation ([2]; substance 0,12 mM)	réponse mélanique: co-culture + MdC "ARG-free" irradiée par UVB ([2]; substance 0,24 mM)	réponse mélanique: co-culture + MdC "ARG = 84mg/L" irradiée par UVB ([2]; substance 0,24 mM)	réponse mélanique: co-culture + MdC "ARG = 84mg/L" sans irradiation ([2]; substance 0,24 mM)	réponse mélanique: co-culture + MdC "ARG-free" irradiée par UVB ([2]; substance 0,48 mM)	réponse mélanique: co-culture + MdC "ARG = 84mg/L" irradiée par UVB ([2]; substance 0,48 mM)	réponse mélanique: co-culture + MdC "ARG = 84mg/L" sans irradiation ([2]; substance 0,48 mM)
N=C(N)NCCC[C@H](N)C(=O)O [L-arginine]	1,5 (±0,2)x10^9 M^-1.S^-1									
N[C@@H](Cc1c[nH]cn1)C(=O)O [L-histidine, reference compound]	2,5 (±0,2)x10^9 M^-1.S^-1									
CCOC(=O)[C@H](CCCNC(=N)N)NC(=O)C(CCSC)NC(C)=O (stereo partly drawn) [NAc-(D,L)-MET-L-ARG-OEt, N-acetyl-(D ou L)methionyl-L-arginine ethyl ester] (Ac-[ξM]-Arg-OEt)	0,7 (±0,2)x10^10 M^-1.S^-1									
CCOC(=O)[C@@H](NC(=O)[C@H](CCCNC(=N)N)NC(C)=O)[C@@H](C)CC [NAc-L-ARG-L-ILE-OEt, N-acetyl-L-arginyl-(D ou L)-isoleucine ethyl ester] (Ac-Arg-Ile-OEt)	6,1 (±0,4)x10^9 M^-1.S^-1									
CCOC(=O)[C@H](CCCNC(=N)N)NC(C)=O [NAc-L-ARG-OEt, N-acetyl-L-arginine ethyl ester]	5,2 (±0,2)x10^9 M^-1.S^-1	30,7	39,5	23,1	37,5	42,6	20,9	43,8	38,4	24,4
CCOC(=O)[C@H](CCCNC(=N)N)NC(=O)[C@H](Cc1c[nH]cn1)NC(C)=O [NAc-L-HIS-L-ARG-OEt, N-acetyl-(D ou L)-histidyl-L-arginine ethyl ester] (Ac-His-Arg-OEt)	9,0 (±0,2)x10^9 M^-1.S^-1	38,8	41,6	22,7	41,0	36,2	22,5	42,5	40,7	18,8
CCOC(=O)[C@H](CCCNC(=N)N)NC(=O)[C@H](Cc1ccc(O)cc1)NC(C)=O [NAc-L-TYR-L-ARG-OEt, N-acetyl-L-tyrosyl-L-arginine ethyl ester]	8,1 (±0,3)x10^9 M^-1.S^-1									
